Laboratory results taken from ChEMBL document CHEMBL3045609, “Synthesis and fungicidal activity of tubulin polymerisation promoters. Part 1: pyrido[2,3-b]pyrazines” (2010).
Values after ≈ are worked out from the molar mass of the structure shown.

Tests used:
Type in all cases: functional
[1] = system: Puccinia triticina; assay: Antifungal activity against Puccinia triticina infected 2 weeks old wheat plant assessed as reduction of diseased leaf area treated 1 day before infection measured after 11 days
[2] = system: Pyricularia grisea; assay: Antifungal activity against Magnaporthe grisea infected 3 weeks old rice plant assessed as reduction of diseased leaf area treated 2 days before infection measured after 6 days
[3] = system: Zymoseptoria tritici; assay: Antifungal activity against Zymoseptoria tritici infected 2 weeks old wheat plant assessed as reduction of diseased leaf area treated 1 day before infection measured after 16 to 18 days

COC(=O)[C@@H](Nc1c(-c2c(F)cc(F)cc2F)c(F)nc2nccnc12)C(C)C
EC80 [1]: < 6 µg/mL
EC80 [2]: 57 µg/mL (≈ 140 µM)
EC80 [3]: 7 µg/mL (≈ 17.1 µM)

C=CCOC(=O)[C@@H](Nc1c(-c2c(F)cc(F)cc2F)c(F)nc2nccnc12)C(C)C
EC80 [1]: 31 µg/mL (≈ 71.4 µM)
EC80 [2]: 110 µg/mL (≈ 253 µM)
EC80 [3]: 21 µg/mL (≈ 48.3 µM)

CC(C)[C@@H](C)Nc1c(-c2c(F)cc(F)cc2F)c(F)nc2nccnc12
EC80 [1]: < 6 µg/mL
EC80 [2]: 11 µg/mL (≈ 30.2 µM)
EC80 [3]: < 2 µg/mL

CC(C)[C@@H](C)Nc1c(-c2c(F)cc(F)cc2F)c(Cl)nc2nccnc12
EC80 [1]: 77 µg/mL (≈ 202 µM)
EC80 [2]: > 200 µg/mL
EC80 [3]: 47 µg/mL (≈ 123 µM)

COc1nc2nccnc2c(N[C@H](C)C(C)C)c1-c1c(F)cc(F)cc1F
EC80 [1]: 129 µg/mL (≈ 343 µM)
EC80 [2]: 100 µg/mL (≈ 266 µM)
EC80 [3]: 32 µg/mL (≈ 85 µM)

CC(C)CNc1c(-c2cccc(F)c2F)c(F)nc2nccnc12
EC80 [1]: 157 µg/mL (≈ 472 µM)
EC80 [2]: > 200 µg/mL
EC80 [3]: 74 µg/mL (≈ 223 µM)

CC(C)CNc1c(-c2cc(F)ccc2F)c(F)nc2nccnc12
EC80 [1]: 118 µg/mL (≈ 355 µM)
EC80 [2]: > 200 µg/mL
EC80 [3]: 80 µg/mL (≈ 241 µM)

COc1nc2nccnc2c(NCC(C)C)c1-c1c(F)cc(F)cc1F
EC80 [1]: 35 µg/mL (≈ 96.6 µM)
EC80 [2]: 42 µg/mL (≈ 116 µM)
EC80 [3]: 50 µg/mL (≈ 138 µM)

COc1nc2nccnc2c(NCC(C)C)c1-c1c(F)cccc1Cl
EC80 [1]: 134 µg/mL (≈ 371 µM)
EC80 [2]: 110 µg/mL (≈ 305 µM)
EC80 [3]: > 200 µg/mL

COc1nc2nccnc2c(NCC(C)C)c1-c1ncc(Cl)cc1F
EC80 [1]: > 200 µg/mL
EC80 [2]: 29 µg/mL (≈ 80.2 µM)
EC80 [3]: 10 µg/mL (≈ 27.6 µM)

COc1nc2nccnc2c(N[C@H](C)C(C)C)c1-c1ncc(Cl)cc1Cl
EC80 [1]: 26 µg/mL (≈ 66.3 µM)
EC80 [2]: 15 µg/mL (≈ 38.2 µM)
EC80 [3]: < 6 µg/mL

COc1nc2nccnc2c(NCC(C)C)c1C#Cc1ccccc1
EC80 [1]: > 200 µg/mL
EC80 [2]: > 200 µg/mL
EC80 [3]: 67 µg/mL (≈ 202 µM)

Fc1cc(F)c(-c2c(F)nc3nccnc3c2NCC(F)(F)F)c(F)c1
EC80 [1]: 20 µg/mL (≈ 53.2 µM)
EC80 [2]: 11 µg/mL (≈ 29.2 µM)
EC80 [3]: 16 µg/mL (≈ 42.5 µM)

C[C@H](Nc1c(-c2c(F)cc(F)cc2F)c(F)nc2nccnc12)C(F)(F)F
EC80 [1]: 39 µg/mL (≈ 99.9 µM)
EC80 [2]: 35 µg/mL (≈ 89.7 µM)
EC80 [3]: 5 µg/mL (≈ 12.8 µM)

CCC(Nc1c(-c2c(F)cc(F)cc2F)c(F)nc2nccnc12)C(F)(F)F (configuration not stated)
EC80 [1]: 10 µg/mL (≈ 24.7 µM)
EC80 [2]: 10 µg/mL (≈ 24.7 µM)
EC80 [3]: < 2 µg/mL

Fc1cc(F)c(-c2c(F)nc3nccnc3c2NC(C2CC2)C(F)(F)F)c(F)c1 (configuration not stated)
EC80 [1]: 16 µg/mL (≈ 38.4 µM)
EC80 [2]: 104 µg/mL (≈ 250 µM)
EC80 [3]: < 6 µg/mL

CCC(C)Nc1c(-c2c(F)cc(F)cc2F)c(F)nc2nccnc12 (configuration not stated)
EC80 [1]: 56 µg/mL (≈ 160 µM)
EC80 [2]: 9 µg/mL (≈ 25.7 µM)
EC80 [3]: 26 µg/mL (≈ 74.2 µM)

CC(C)(C)Nc1c(-c2c(F)cc(F)cc2F)c(F)nc2nccnc12
EC80 [1]: > 200 µg/mL
EC80 [2]: 35 µg/mL (≈ 99.9 µM)
EC80 [3]: 19 µg/mL (≈ 54.2 µM)

CC(C)C(C)Nc1c(-c2c(F)cc(F)cc2F)c(F)nc2nccnc12 (configuration not stated)
EC80 [1]: < 20 µg/mL
EC80 [2]: 26 µg/mL (≈ 71.4 µM)
EC80 [3]: 15 µg/mL (≈ 41.2 µM)
